Counter-ions that a name gives are not always drawn.
These molecules were tested against T1, recombinant human TGR5 (Homo sapiens, UniProt Q8TDU6) (assay: cAMP assay (cAMP accumulation, HTRF) in CHOK1 cells stably expressing TGR5). Details: CHOK1 cells stably expressing human TGR5, 30 minutes at RT, 1% DMSO.
T1 construct: expressed in transfected cells
T1 sequence (Q8TDU6 1-330): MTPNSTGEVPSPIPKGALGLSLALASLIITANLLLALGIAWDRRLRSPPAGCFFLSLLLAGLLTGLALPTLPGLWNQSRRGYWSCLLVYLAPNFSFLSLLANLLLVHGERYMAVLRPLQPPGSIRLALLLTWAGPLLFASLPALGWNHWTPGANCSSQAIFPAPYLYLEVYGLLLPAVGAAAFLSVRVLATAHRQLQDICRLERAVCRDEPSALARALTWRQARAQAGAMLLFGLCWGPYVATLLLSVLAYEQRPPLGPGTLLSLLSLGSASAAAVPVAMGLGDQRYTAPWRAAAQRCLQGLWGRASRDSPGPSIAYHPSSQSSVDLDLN
Type: cell-based
Method in brief: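 Agonist-induced cAMP accumulation: stable TGR5-CHOK1 cells treated 30 min at RT with compound (1% DMSO) plus 0.1 mM IBMX. HTRF ratio converted to nM cAMP via standard curve; EC50 from four-parameter logistic fit, midpoint between baseline and maximum.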

SMILES | EC50 [nM]
Cc1cccc(OCCCC(=O)N(C)c2cccc(-c3cnn(Cc4cccc(C(=O)O)c4)c3)c2)c1C [Example 339, 3-((4-(3-(4-(2,3-Dimethylphenoxy)-N-methylbutanamido)phenyl)-1H-pyrazol-1-yl)methyl) benzoic acid] | 2580
Cc1c(Cl)cccc1OCCCC(=O)N1C[C@@H]2C[C@@H]2c2c(-c3cnn(Cc4cccc(N5C(=O)[C@H](CCC[N+](C)(C)C)N(C)C5=O)c4)c3)cccc21 [Example 352, 3-((S)-1-(3-((4-((1aR,7bS)-3-(4-(3-Chloro-2-methylphenoxy)butanoyl)-1a,2,3,7b-tetrahydro-1H-cyclopropa[c]quinolin-7-yl)-1H-pyrazol-1-yl)methyl)phenyl)-3-methyl-2,5-dioxoimidazolidin-4-yl)-N,N,N-trimethylpropan-1-aminium, TFA salt] | 196
Cc1cccc(OCCCC(=O)N2CCCc3c(-c4cnn(Cc5cncc(C(=O)O)c5)c4)cccc32)c1C [Example 359, 5-((4-(1-(4-(2,3-Dimethylphenoxy)butanoyl)-1,2,3,4-tetrahydroquinolin-5-yl)-1H-pyrazol-1-yl)methyl) nicotinic acid, TFA salt] | 1650
Cc1cccc(OCCCC(=O)N2CCCOc3c(-c4cnn(Cc5c(F)cc(C(=O)O)cc5Cl)c4)cccc32)c1C [Example 392, 3-Chloro-4-((4-(5-(4-(2,3-dimethylphenoxy)butanoyl)-2,3,4,5-tetrahydrobcnzo[b] [1,4]oxazepin-9-yl)-1H-pyrazol-1-yl)methyl)-5-fluorobenzoic acid] | 189
Cc1cccc(OCCCC(=O)N2CCCc3c(-c4cnn(Cc5cccc(-c6nnn(CC(=O)O)n6)c5)c4)cccc32)c1C [Example 430, 2-(5-(3-((4-(1-(4-(2,3-Dimethylphenoxy)butanoyl)-1,2,3,4-tetrahydroquinolin-5-yl)-1H-pyrazol-1-yl)methyl)phenyl)-2H-tetrazol-2-yl) acetic acid] | 197
COC(=O)c1ccc(O)c(Cn2cc(-c3cccc4c3[C@H]3C[C@H]3CN4C(=O)OCCOc3cccc(Cl)c3C)cn2)c1 [Example 447, (1aR,7bS)-2-(3-Chloro-2-methylphenoxy)ethyl 7-(1-(2-hydroxy-5-(methoxycarbonyl)benzyl)-1H-pyrazol-4-yl)-1a,2-dihydro-1H-cyclopropa[c] quinoline-3(7bH)-carboxylate] | 1590
Cc1cccc(OCCCC(=O)N2CCCc3c(-c4cnn(Cc5ccc[n+](CC(=O)O)c5)c4)cccc32)c1C [Example 466, 1-(Carboxymethyl)-3-((4-(1-(4-(2,3-dimethylphenoxy)butanoyl)-1,2,3,4-tetrahydroquinolin-5-yl)-1H-pyrazol-1-yl)methyl)pyridinium, TFA salt] | 3930
Cc1cccc(OCCCC(=O)N2CCCc3c(-c4cnn(Cc5ccc[n+](C)c5)c4)cccc32)c1C [Example 467, 3-((4-(1-(4-(2,3-Dimethylphenoxy)butanoyl)-1,2,3,4-tetrahydroquinolin-5-yl)-1H-pyrazol-1-yl)methyl)-1-methylpyridinium] | 2960
Cc1cccc(OCCCC(=O)N2CCCc3c(-c4cnn(Cc5cccc(N(C)C(=O)NCC[N+](C)(C)C)c5)c4)cccc32)c1C [Example 471, 2-(3-(3-((4-(1-(4-(2,3-Dimethylphenoxy)butanoyl)-1,2,3,4-tetrahydroquinolin-5-yl)-1H-pyrazol-1-yl)methyl)phenyl)-3-methylureido)-N,N,N-trimethylethanaminium, TFA salt] | 2170

Further molecules by falling EC50, results first:

EC50 [nM] | SMILES
188 | Cc1c(Cl)cccc1OCCOC(=O)N1CCSc2c(-c3cnn(Cc4cccc(OCC(=O)O)c4)c3)cccc21 [Example 375, 2-(3-((4-(4-((2-(3-Chloro-2-methylphenoxy)ethoxy)carbonyl)-3,4-dihydro-2H-benzo[b][1,4]thiazin-8-yl)-1H-pyrazol-1-yl)methyl)phenoxy)acetic acid]
186 | COC(=O)c1ccc(Cl)c(Cn2cc(-c3cccc4c3SCCN4C(=O)OCCOc3cccc(Cl)c3C)cn2)c1 [Example 367, 2-(3-Chloro-2-methylphenoxy)ethyl 8-(l-(2-chloro-5-(methoxycarbonyl)benzyl)-1H-pyrazol-4-yl)-2H-benzo[b][1,4]thiazine-4(3H)-carboxylate]
185 | [2H]C([2H])(COC(=O)N1CCCOc2c(-c3cnn(Cc4c(F)cc(C(=O)O)cc4Cl)c3)cccc21)Oc1cccc(Cl)c1C [Example 418, 3-Chloro-4-((4-(5-((2-(3-chloro-2-methylphenoxy)-2,2-dideuteroethoxy)carbonyl)-2,3,4,5-tetrahydrobenzo[b][1,4]oxazepin-9-yl)-1H-pyrazol-1-yl)methyl)-5-fluorobenzoic acid]
183 | Cc1c(Cl)cccc1OCCOC(=O)N1C[C@@H]2C[C@@H]2c2c(-c3cnn(Cc4cccc(C(C)(C)O)c4)c3)cccc21 [Example 434, (1aR,7bS)-2-(3-Chloro-2-methylphenoxy)ethyl 7-(1-(3-(2-hydroxypropan-2-yl)benzyl)-1H-pyrazol-4-yl)-1a,2-dihydro-1H-cyclopropa [c]quinoline-3(7bH)-carboxylate]
183 | Cc1c(Cl)cccc1OCCOC(=O)N1C[C@@H]2C[C@@H]2c2c(-c3cnn(Cc4cc(OCCOCC(=O)O)ccc4Cl)c3)cccc21 [Example 448, 2-(2-(4-Chloro-3-((4-((1aR,7bS)-3-((2-(3-chloro-2-methylphenoxy)ethoxy)carbonyl)-1a,2,3,7b-tetrahydro-1H-cyclopropa[c]quinolin-7-yl)-1H-pyrazol-1-yl)methyl)phenoxy)ethoxy)acetic acid]
171 | Cc1c(Cl)cccc1OCCOC(=O)N1C[C@@H]2C[C@@H]2c2c(-c3cnn(Cc4ccc(C(=O)O)cc4Cl)c3)cccc21 [Example 436, 3-Chloro-4-((4-((1aR,7bS)-3-((2-(3-chloro-2-methylphenoxy)ethoxy)carbonyl)-1a,2,3,7b-tetrahydro-1H-cyclopropa[c]quinolin-7-yl)-1H-pyrazol-1-yl)methyl)benzoic acid]
43 | Cc1c(Cl)cccc1OCCCC(=O)N1CCSc2c(-c3cnn(Cc4c(F)cc(C(=O)O)cc4Cl)c3)cccc21 [Example 358, 3-Chloro-4-((4-(4-(4-(3-chloro-2-methylphenoxy)butanoyl)-3,4-dihydro-2H-benzo[b][1,4]thiazin-8-yl)-1H-pyrazol-1-yl)methyl)-5-fluorobenzoic acid]
40 | Cc1c(Cl)cccc1OCCCC(=O)N1CCSc2c(-c3cnn(Cc4cccc(C(=O)O)c4)c3)cccc21 [Example 354, 3-((4-(4-(4-(3-Chloro-2-methylphenoxy)butanoyl)-3,4-dihydro-2H-benzo[b] [1,4]thiazin-8-yl)-1H-pyrazol-1-yl)methyl)benzoic acid]
31 | Cc1c(Cl)cccc1OCCCC(=O)N1C[C@@H]2C[C@@H]2c2c(-c3cnn(Cc4cccc(N5C(=O)CN(CC(=O)O)C5=O)c4)c3)cccc21 [Example 350, 2-(3-(3-((4-((1aR,7bS)-3-(4-(3-Chloro-2-methylphenoxy)butanoyl)-1a,2,3,7b-tetrahydro-1H-cyclopropa[c]quinolin-7-yl)-1H-pyrazol-1-yl)methyl)phenyl)-2,4-dioxoimidazolidin-1-yl) acetic acid]

Source: US9062028B2, “Bicyclic nitrogen containing heteroaryl TGR5 receptor modulators” (Bristol-Myers Squibb Company, priority 2011, dated 2015)
